Patent US12605384B2, “Uses” (INTRA-CELLULAR THERAPIES, INC., priority 2018, dated 2026)
Structures can show the parent of a compound that is named as a salt.

Experiments:
[1] = Plasma Compound 1 levels in dogs (LC/MS-MS); assay type: in vivo, dog; settings: normal dogs, 0.1 mg/kg i.v.
Method: (§1) Dogs are studied in the conscious state before and after inducing dilated cardiomyopathy by tachypacing for two weeks at 200 bpm.
(§2) The study employs two doses, 0.01 and 0.1 mg/kg, the latter administered 30 minutes after the first.
Intravenous blood is placed in K2EDTA tubes, centrifuged at 2,000 g for 15 min, plasma decanted, and stored frozen. Compound 1 levels are assessed by a rapid, sensitive liquid chromatography-tandem mass spectrometric (LC/MS-MS) method.
The mobile phase consists of a gradient of 60-100% methanol over 4.5 minutes in 5 mM ammonium bicarbonate with 0.2% NH3H2O, pumped at a flow rate of 0.8 mL/min. Analysis time is 4.5 min and both the analyte and internal standard eluted around 2.0 min. Multiple reactions monitoring (MRM) mode is used to detect Compound 1. MS is operated in the positive ion detection mode. […] Calibration curves are linear from 0.02-500 ng/mL in dog plasma sample matrices. The lower limit of quantification (LLOQ) for plasma was 0.02 ng/mL.

[2] = tested on: normal and failing canine hearts; experiment: Conscious pressure-volume hemodynamic analysis in dogs; assay type: in vivo, dog
Method: as §1, §2
Load insensitive indexes of contractility (dP/dtmax/IP and PRSW) increased.

plasma cAMP and cGMP = experiment: Plasma cAMP and cGMP by ELISA in dogs; assay type: in vivo, dog; settings: for plasma cGMP: normal and HF models, all conditions
Method: Blood plasma is obtained from these animals, and cAMP and cGMP are assayed by ELISA.

[3] = tested on: New Zealand White rabbits; experiment: Pressure-volume hemodynamics in anesthetized rabbits; assay type: in vivo, rabbit; settings: for hemodynamic effects: atrially paced
From the text: Cyclic AMP is generated largely by transmembrane adenylyl cyclases activated via stimulatory G protein (Gs), with β-adrenergic, adenosine (primarily […]), glucagon, prostanoids, histamine, and serotonin all coupling to Gs in cardiomyocytes. The present studies focus on beta-adrenergic and adenosine receptors, and for the latter, concentrated on the A2B receptor, which has been reported to directly stimulate cAMP-dependent contractility. […] Relaxation changes are also modest with LV preload (end-diastolic and volume) unaltered; however, the combined vasodilator-inotropic response doubled ventricular/arterial coupling ratio, Ees/Ea.
New Zealand White rabbits (male, 2-3 kg) are sedated with 35 mg/kg ketamine and 5 mg/kg xylazine, intubated and ventilated (Model 683, Harvard Apparatus, Holliston, MA), with anesthesia maintained with isoflurane inhalation (1-2%). A pressure-volume catheter (SPR-894, Millar, Inc., Houston, TX) is inserted via the common carotid artery and advanced to the LV apex, and a 2-Fr pacing catheter is positioned in the right atrium via the right jugular vein to provide atrial pacing. […] The parallel conductance is determined by the hypertonic saline injection method. Rabbits are infused with 6% hetastarch in saline during the procedure to stabilize arterial pressure.

[4] = tested on: normal adult rabbit myocytes; experiment: Contraction and calcium transients in isolated rabbit cardiomyocytes; assay type: cell-based; parameters: effect on contraction and calcium transients: dose or concentration left out as unconfirmed
Method: To test whether PDE1 inhibition directly impacts cardiomyocyte contraction and calcium transients, studies are carried out on normal adult rabbit myocytes. […] As PDE1 requires sufficient cAMP and Ca^2+ to be impactful, a dose response was performed to the adenylate cyclase activator, forskolin (FSK) to determine the lowest dose producing a modest but significant inotropic effect (1 μM).
Rabbit myocytes were isolated to determine the effect of PDE1 inhibition on cardiomyocyte contraction and whole cell Ca2+ transients, and to compare the results to those with a PDE3 inhibitor, cilostamide (Cil, 1 μM).

myocyte cAMP = experiment: Whole cell cAMP in rabbit myocytes; assay type: cell-based; settings: for cAMP: added to Fsk; for whole cell cAMP: alone or combined with Iso
From the text: This is consistent with prior studies showing locally generated cAMP from β-AR and its modulation by PDE3 occur in local subcellular domains that are not easily detected in whole cell lysates32.

[5] = tested on: patients with stable chronic systolic HF; experiment: Phase Ib/IIa single ascending dose study in human heart failure; assay type: in vivo
Method: (§3) A further group was administered placebo.
(§4) Hemodynamic monitoring began 30-60 minutes prior to the pre-dose echocardiogram through to 5-6 hours post-dose.
Supine and orthostatic blood pressure and heart rate were recorded pre-dose, as well as 60 and 40 minutes post-dose. Continuous electrocardiographic monitoring starting up to 30-60 minutes prior to the pre-dose echocardiogram through to 5-6 hours post-dose including measurement of ectopic arrhythmias pre- and post-dose.

[6] = Plasma pharmacokinetics in heart failure patients; assay type: in vivo, human; settings: 10, 30, 90 mg
Method: as §3, §4

[7] = Compound 1 added after FSK 1 μM
[8] = continuous ECG monitoring to 5-6 hours post-dose

CN1C(=O)c2c(nn(Cc3ccc(-c4cccc(F)n4)cc3)c2Nc2ccccc2)N2C1=N[C@@H]1CCC[C@@H]12 [Compound 1, (6aR,9aS)-2-(4-(6-fluoropyridin-2-yl)benzyl)-5-methyl-3-(phenyl-amino)-5,6a,7,8,9,9a-hexahydrocyclopenta-[4,5]imidazo[1,2-a]pyrazolo[4,3-e]pyrimidin-4-(2H)-one monophosphate]
time of peak plasma concentration [1]: within minutes | hemodynamic responses ([2]; 0.1 mg/kg i.v.): positive chronotropic, inotropic, lusitropic, and vasodilator responses | inotropy, lusitropy and vasodilation ([2]; i.v., heart failure dogs): remained significantly improved | plasma cAMP (plasma cAMP and cGMP; HF dogs, combination of dobutamine and Compound 1): significantly higher | plasma cGMP (plasma cAMP and cGMP): remains unchanged | LV preload ([3]; 0.1 mg/kg i.v. bolus, alone): unaltered | cardiac output ([3]; 0.1 mg/kg i.v. bolus, alone): increases cardiac output | heart rate ([3]; 0.1 mg/kg i.v. bolus, alone): modestly elevated heart rate | relaxation changes ([3]; 0.1 mg/kg i.v. bolus, alone): modest | systemic resistance ([3]; 0.1 mg/kg i.v. bolus, alone): lowered systemic resistance | systolic pressure ([3]; 0.1 mg/kg i.v. bolus, alone): no change in systolic pressure | contractile and vasodilation effects ([3]; after esmolol): remain intact | heart rate ([3]; after esmolol): no longer increases HR | hemodynamic responses ([3]; atrially paced at ~20% above sinus node rate): nearly identical responses | hemodynamic effects ([3]; with MRS-1754): fully blocked by MRS-1754 | hemodynamic effects ([3]; with esmolol): unaltered by esmolol | cardiovascular responses to Compound 1 (heart rate, contractility, vasodilation) ([3]; with A2BR blocker MRS-1754): eliminated all of the cardiovascular responses | percent sarcomere shortening, peak-Ca2+ transients and decay kinetics ([4]; Compound 1 1 μM alone): not observed | rise in sarcomere shortening versus time-control ([4]; Compound 1+FSK vs FSK for identical duration): exceeds that with FSK alone | peak calcium transient [4, 7]: remains unaltered | shortening and relaxation/calcium decay rates [4, 7]: significantly increases shortening and relaxation/calcium decay rates | effect on contraction and calcium transients ([4]; Compound 1 alone): no effect | Ca2+ transient decay ([4]; added to Fsk 1 μM): enhanced the Ca2+ decay rate similarly to Cil | peak Ca2+ transient ([4]; added to Fsk 1 μM): no corresponding increase in peak Ca2+ transient | sarcomere shortening ([4]; added to Fsk 1 μM): rose as with Cil | peak-Ca2+ ([4]; added to Iso): no longer significantly different from pre-Iso baseline | sarcomere shortening ([4]; added to Iso): did not change further | cAMP change as share of the maximal change with IBMX added to Fsk (myocyte cAMP; Compound 1 added to Fsk): about half | cAMP (myocyte cAMP): substantially increased by adding Compound 1 | systemic vascular resistance ([5]; 30 mg): greatest decrease | effective arterial elastance (Ea) ([5]; 30 mg and 90 mg): decreased | systemic vascular resistance ([5]; all cohorts (10, 30, 90 mg single oral dose)): significantly decrease systemic vascular resistance | mean arterial blood pressure ([5]; all dose amounts, versus placebo): decrease mean arterial blood pressure versus placebo | atrial fibrillation or atrial flutter [5, 8]: none of the patients developed atrial fibrillation or atrial flutter | sustained supraventricular or ventricular tachycardia [5, 8]: no patient developed sustained supraventricular or ventricular tachycardia | ventricular proarrhythmia [5, 8]: no evidence of ventricular proarrhythmia | safety and tolerability ([5]; patients with systolic heart failure (HFrEF)): safe and well tolerated | blood pressures and heart rates ([5]; throughout the testing period): remained stable | area under curve [6]: increasing with dose escalation

CC(C)Cn1c(=O)n(C)c(=O)c2[nH]cnc21 [IBMX, reference compound]
peak calcium transients ([4]; IBMX 100 μM): did not alter peak calcium transients | shortening and contraction/calcium decay rates ([4]; IBMX 100 μM): increased shortening and contraction/calcium decay rates

CCCn1c(=O)c2[nH]c(-c3ccc(OCC(=O)Nc4ccc(C#N)cc4)cc3)nc2n(CCC)c1=O [MRS-1754, reference compound]
impact of inhibitor pre-treatment alone on cardiovascular hemodynamics [3]: Neither inhibitor pre-treatment alone has a significant impact

CN(C(=O)CCCOc1ccc2[nH]c(=O)ccc2c1)C1CCCCC1 [cilostamide, reference compound]
percent sarcomere shortening, peak-Ca2+ transients and decay kinetics ([4]; Cil 1 μM alone): rose and their decay kinetics accelerated | Ca2+ transient decay ([4]; added to Fsk 1 μM): faster decay of the Ca2+ transient | peak Ca2+ transient ([4]; added to Fsk 1 μM): increase | sarcomere shortening ([4]; added to Fsk 1 μM): increase in sarcomere shortening | peak-Ca2+ ([4]; added to Iso): remained elevated over baseline | sarcomere shortening ([4]; added to Iso): further increased sarcomere shortening | cAMP (myocyte cAMP): unaltered by addition of Cil | whole cell cAMP (myocyte cAMP): did not measurably increase whole cell cAMP

CC(CCc1ccc(O)cc1)NCCc1ccc(O)c(O)c1 (stereo not drawn) [dobutamine, reference compound]
PV loop area (stroke work) and contractility ([2]; dobutamine 10 μg/kg/min alone): increased PV loop area | plasma cGMP (plasma cAMP and cGMP): remains unchanged

COC(=O)CCc1ccc(OCC(O)CNC(C)C)cc1 (stereo not drawn) [esmolol, esmolol HCl, reference compound]
cardiac responses to 10 μg/kg/min dobutamine ([3]; esmolol dose as used): effectively blocked cardiac responses | impact of inhibitor pre-treatment alone on cardiovascular hemodynamics [3]: Neither inhibitor pre-treatment alone has a significant impact

CC(C)NCC(O)c1ccc(O)c(O)c1 (stereo not drawn) [isoproterenol, reference compound]
sarcomere shortening and peak Ca2+ ([4]; isoproterenol 50 nM): increases both sarcomere shortening and peak Ca^2+ | sarcomere shortening, peak-Ca2+ and relaxation times ([4]; non-saturating dose of isoproterenol): increased sarcomere shortening and peak-Ca^2+, and quickened relaxation times | whole cell cAMP (myocyte cAMP): did not measurably increase whole cell cAMP
